Consider 2 compounds from publication PMC2962730 (Journal of neurochemistry, 2010).

SMILES strings stand for the structures. Residue numbers refer to the chain shown, from its start.

The target of assay [1] is T1, hVAChT F231A (Homo sapiens, UniProt Q16572, F231A).
T1 sequence (Q16572 1-532 F231A): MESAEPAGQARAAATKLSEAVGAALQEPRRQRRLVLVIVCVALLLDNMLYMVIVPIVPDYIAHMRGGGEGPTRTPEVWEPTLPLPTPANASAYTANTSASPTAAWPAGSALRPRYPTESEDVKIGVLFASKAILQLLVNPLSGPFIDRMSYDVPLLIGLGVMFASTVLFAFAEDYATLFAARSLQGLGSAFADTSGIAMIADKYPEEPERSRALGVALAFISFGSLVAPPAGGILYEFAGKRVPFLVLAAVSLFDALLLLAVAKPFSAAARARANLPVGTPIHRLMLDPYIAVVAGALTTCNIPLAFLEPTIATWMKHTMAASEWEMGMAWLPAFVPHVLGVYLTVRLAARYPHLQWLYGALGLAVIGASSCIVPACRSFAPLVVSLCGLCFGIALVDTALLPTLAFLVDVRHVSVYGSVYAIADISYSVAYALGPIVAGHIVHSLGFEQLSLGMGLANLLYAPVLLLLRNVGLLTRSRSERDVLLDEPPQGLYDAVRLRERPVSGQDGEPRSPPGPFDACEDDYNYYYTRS
Description: [3H]vesamicol saturation binding. The conditions noted are these: pH 7.4.

The target of assay [2] is T2, hVAChT M320A (Homo sapiens, UniProt Q16572, M320A).
T2 sequence (Q16572 1-532 M320A): T1 sequence (Q16572 1-532 F231A) with A231F, M320A
The assay can be described thus: [3H]vesamicol saturation binding. The conditions noted are these: pH 7.4.

Assay [3] concerns the target T3, hVAChT wild-type (Homo sapiens, UniProt Q16572).
T3 sequence (Q16572 1-532): T1 sequence (Q16572 1-532 F231A) with A231F
The assay can be described thus: ACh equilibrium binding by competition against [3H]vesamicol. To be noted: WT hVAChT; pH 7.4.

For assay [4], the target named is T4, hVAChT W315A (Homo sapiens, UniProt Q16572, W315A).
T4 sequence (Q16572 1-532 W315A): T1 sequence (Q16572 1-532 F231A) with A231F, W315A
Description: [3H]ACh transport. The assay is classed as biochemical.

In assay [5] the target is T5, hVAChT Y60W (Homo sapiens, UniProt Q16572, Y60W).
T5 sequence (Q16572 1-532 Y60W): T1 sequence (Q16572 1-532 F231A) with Y60W, A231F
Description: [3H]ACh transport. In kind it is biochemical.

The target of assay [6] is T1, hVAChT F231A. Description: ACh equilibrium binding by competition against [3H]vesamicol.
For assay [7], the target named is T4, hVAChT W315A. The description is as above.
Setting [8] is: read-out: KM, Michaelis-Menten constant for ACh transport, pH 7.4.

On to `O[C@@H]1CCCC[C@H]1N1CCC(c2ccccc2)CC1` (racemic) [vesamicol, ( )-trans-2-(4-phenylpiperidino)cyclohexanol], for which the “Bmax, maximal specific [3H]vesamicol binding (VAChT expression level)” value in assay [1] was found to be 64 ± 4 pmol/mg; in assay [2], 62 ± 5 pmol/mg.
Regarding `CC(=O)OCC[N+](C)(C)C` [ACh, acetylcholine], the “FHA, fraction of the ACh sites that have high affinity” value stood at 0.82 ± 0.04 in assay [3]; 0.67 ± 0.05 in assay [6] (F231A hVAChT, pH 7.4); 0.84 ± 0.16 in assay [7] (W315A hVAChT, pH 7.4). Also, the “Vmax/Bmax, ACh transport normalized to Bmax” value came out at 5.2 ± 0.8 min⁻¹ in assay [4] (pH 7.4) and 7.9 ± 0.8 min⁻¹ in assay [5] (pH 7.4). Besides, the values for the Michaelis-Menten constant (Km) in assay [4] (setting [8]) and in assay [5] (setting [8]) were 690 ± 220 µM and 920 ± 170 µM, respectively. Further, the Kd in assay [6] was 5.8 ± 1.2 mM; in assay [7] it was 11 ± 4 mM.

In general, Km refers to the substrate concentration at which the rate is half of its maximum. For orientation: Kd means a measure of binding affinity in units of concentration. Read a low Kd as higher affinity.
